Source: the NIST ThermoML archive (doi:10.1016/j.jct.2015.01.007)

Settings: for molar entropy: 101.33 kPa

O=P([O-])([O-])[O-].[Fe+2].[Li+] [iron(II) lithium phosphate]
molar entropy [J/K/mol]
Settings	Crystal 1, combination of DSC and relaxation calorimetry	Crystal 2, relaxation calorimetry
5 K	–	0.0577
10 K	–	0.1645
15 K	–	0.5534
20 K	–	1.241
25 K	–	2.309
30 K	–	3.785
35 K	–	5.708
40 K	–	8.078
42 K	–	9.158
45 K	–	10.96
46 K	–	11.63
47 K	–	12.33
48 K	–	13.07
49 K	–	13.86
49.24 K	14.06	14.06
50 K	14.7	–
51 K	15.21	–
52 K	15.67	–
53 K	16.11	–
54 K	16.53	–
55 K	16.95	–
60 K	19.01	–
65 K	21.09	–
70 K	23.23	–
80 K	27.71	–
90 K	32.41	–
100 K	37.27	–
110 K	42.25	–
120 K	47.28	–
130 K	52.34	–
140 K	57.41	–
150 K	62.46	–
160 K	67.48	–
170 K	72.46	–
180 K	77.39	–
190 K	82.26	–
200 K	87.07	–
210 K	91.83	–
220 K	96.51	–
230 K	101.1	–
240 K	105.7	–
250 K	110.2	–
260 K	114.6	–
270 K	119	–
280 K	123.3	–
290 K	127.5	–
298.15 K	130.9	–
300 K	131.7	–
320 K	139.9	–
340 K	147.9	–
360 K	155.6	–
380 K	163.1	–
400 K	170.5	–
420 K	177.6	–
440 K	184.6	–
460 K	191.4	–
480 K	198	–
500 K	204.4	–
520 K	210.8	–
540 K	216.9	–
560 K	223	–
580 K	228.9	–
600 K	234.6	–
620 K	240.3	–
640 K	245.8	–
660 K	251.2	–
680 K	256.5	–
700 K	261.8	–
720 K	266.9	–
740 K	271.9	–
760 K	276.8	–

Settings	Triple point temperature [K]
Crystal 2, Relaxation calorimeter	49.24
